Assay results reported in ChEMBL document CHEMBL1140758, “Chemoenzymatic synthesis and antiviral evaluation of conformationally constrained and 3'-methyl-branched carbanucleosides using both enantiomers of the same building block” (Bioorg Med Chem, 2008).
The source made the active and inactive calls.

How the values were obtained:
Assay type in all cases: functional, organism-based
[1] = system: Coxsackievirus B4; assay: Antiviral activity against Coxsackie virus B4 in Vero cells at 100 ug/mL
[2] = system: Punta Toro virus; assay: Antiviral activity against Punta Toro virus in Vero cells at 100 ug/mL
[3] = system: Vesicular stomatitis virus; assay: Antiviral activity against VSV in HeLa cells at 100 ug/mL
[4] = system: Human alphaherpesvirus 1; assay: Antiviral activity against HSV1 KOS in HEL cells at 100 ug/mL
[5] = system: Human alphaherpesvirus 1; assay: Antiviral activity against thymidine kinase deficient HSV1 KOS in HEL cells at 100 ug/mL
[6] = system: Vaccinia virus; assay: Antiviral activity against vaccinia virus in HEL cells at 100 ug/mL; settings: Orthopoxvirus vaccinia
[7] = system: Respiratory syncytial virus; assay: Antiviral activity against RSV in HeLa cells at 100 ug/mL
[8] = system: Influenza B virus; assay: Antiviral activity against influenza B virus in MDCK cells at 100 ug/mL
[9] = system: Coxsackievirus B4; assay: Antiviral activity against Coxsackie virus B4 in HeLa cells at 100 ug/mL
[10] = system: Influenza A virus; assay: Antiviral activity against influenza A virus H1N1 in MDCK cells at 100 ug/mL
[11] = system: Sindbis virus; assay: Antiviral activity against Sindbis virus in Vero cells at 100 ug/mL
[12] = system: Mammalian orthoreovirus 1; assay: Antiviral activity against Reovirus1 in Vero cells at 100 ug/mL
[13] = system: Vesicular stomatitis virus; assay: Antiviral activity against VSV in HEL cells at 100 ug/mL
[14] = system: Human respirovirus 3; assay: Antiviral activity against parainfluenza 3 virus in Vero cells at 100 ug/mL
[15] = system: Human alphaherpesvirus 2; assay: Antiviral activity against HSV2 G in HEL cells at 100 ug/mL
[16] = system: Influenza A virus; assay: Antiviral activity against influenza A virus H3N2 in MDCK cells at 100 ug/mL

Measured: Activity

C[C@]12O[C@H]1[C@H](n1cnc3c(NC4CC4)nc(N)nc31)C[C@@H]2CO
inactive: all assays above

C[C@]12C[C@H](n3cnc4c(NC5CC5)nc(N)nc43)C[C@@]1(CO)O2
inactive: all assays above

C[C@]12O[C@H]1[C@H](n1cnc3c(NC4CC4)ncnc31)C[C@@H]2CO
inactive: all assays above

C[C@]12C[C@H](n3cnc4c(N)ncnc43)C[C@@]1(CO)O2
inactive: all assays above

C[C@]12O[C@H]1[C@H](n1cnc3c(N)ncnc31)C[C@@H]2CO
inactive: all assays above

C[C@]12C[C@H](n3cnc4c(NC5CC5)ncnc43)C[C@@]1(CO)O2
inactive: all assays above
